{"source": "ChEMBL document CHEMBL4130373", "about": "“Design, synthesis and biological evaluation of 4-anilinoquinoline derivatives as novel potent tubulin depolymerization agents” (Eur J Med Chem, 2017)", "key": {"[1]": {"tested_on": "A2780S", "assay": "Cell cycle arrest in human A2780S cells assessed as accumulation at G0/G1 phase at 3 nM after 24 hrs by propidium iodide staining based flow cytometry (reference value: 44.3%)", "type": "functional"}, "[2]": {"tested_on": "HCT-116", "assay": "Antitumor activity against human HCT116 cells xenografted in Balb/c athymic nude mouse assessed as tumor growth inhibition at 2.5 mg/kg administered once in every 2 days measured on day 18 post treatment relative to control", "type": "functional", "conditions": "read-out: TGI"}, "[3]": {"tested_on": "A2780S", "assay": "Antiproliferative activity against human A2780S cells after 48 hrs by MTT assay", "type": "functional, cell-based"}, "[4]": {"tested_on": "A549", "assay": "Antiproliferative activity against human A549 cells after 48 hrs by MTT assay", "type": "functional, cell-based", "conditions": "A549, 48 h"}, "[5]": {"assay": "Resistance index, ratio of IC50 for human MCF7/ADR cells to IC50 for human MCF7 cells", "type": "functional"}, "[6]": {"tested_on": "Mus musculus", "assay": "Toxicity in Balb/c athymic nude mouse xenografted with human HCT116 cells assessed as abnormal behaviour at 2.5 mg/kg administered once in every 2 days", "type": "organism-based", "conditions": "in vivo, 48 h"}, "[7]": {"assay": "Antiproliferative activity against human HCT8/V cells after 48 hrs by MTT assay", "type": "functional, cell-based", "conditions": "HCT-8, 48 h"}, "[8]": {"assay": "Resistance index, ratio of IC50 for human HCT8/V cells to IC50 for human HCT8 cells", "type": "functional"}, "[9]": {"tested_on": "NCI/ADR-RES", "assay": "Antiproliferative activity against human MCF7/ADR cells after 48 hrs by MTT assay", "type": "functional, cell-based"}, "[10]": {"tested_on": "A2780S", "assay": "Cell cycle arrest in human A2780S cells assessed as accumulation at G2/M phase at 10 nM after 24 hrs by propidium iodide staining based flow cytometry (reference value: 15.34%)", "type": "functional"}, "[11]": {"tested_on": "Mus musculus", "assay": "Toxicity in Balb/c athymic nude mouse xenografted with human HCT116 cells assessed as body weight loss at 2.5 mg/kg administered once in every 2 days relative to control", "type": "organism-based", "conditions": "in vivo, 48 h"}, "[12]": {"tested_on": "A2780S", "assay": "Cell cycle arrest in human A2780S cells assessed as accumulation at G2/M phase at 3 nM after 24 hrs by propidium iodide staining based flow cytometry (reference value: 15.34%)", "type": "functional"}, "[13]": {"tested_on": "A2780S", "assay": "Cell cycle arrest in human A2780S cells assessed as accumulation at S phase at 30 nM after 24 hrs by propidium iodide staining based flow cytometry (reference value: 40.36%)", "type": "functional"}, "[14]": {"assay": "Resistance index, ratio of IC50 for human A2780T cells to IC50 for human A2780S cells", "type": "functional"}, "[15]": {"assay": "Solubility of the compound in physiological saline at 1 mg", "type": "physicochemical", "conditions": "buffer"}, "[16]": {"tested_on": "A2780/Taxol", "assay": "Antiproliferative activity against human A2780T cells after 48 hrs by MTT assay", "type": "functional, cell-based"}, "[17]": {"tested_on": "A2780S", "assay": "Cell cycle arrest in human A2780S cells assessed as accumulation at G2/M phase at 30 nM after 24 hrs by propidium iodide staining based flow cytometry (reference value: 15.34%)", "type": "functional"}, "[18]": {"assay": "Resistance index, ratio of IC50 for human HCT8/T cells to IC50 for human HCT8 cells", "type": "functional"}, "[19]": {"assay": "Antiproliferative activity against human HCT8/T cells after 48 hrs by MTT assay", "type": "functional, cell-based", "conditions": "HCT-8, 48 h"}, "[20]": {"tested_on": "A2780S", "assay": "Cell cycle arrest in human A2780S cells assessed as accumulation at S phase at 3 nM after 24 hrs by propidium iodide staining based flow cytometry (reference value: 40.36%)", "type": "functional"}, "[21]": {"tested_on": "MDA-MB-231", "assay": "Antiproliferative activity against human MDA-MB-231 cells after 48 hrs by MTT assay", "type": "functional, cell-based", "conditions": "MDA-MB-231, 48 h"}, "[22]": {"tested_on": "Mus musculus", "assay": "Toxicity in Balb/c athymic nude mouse xenografted with human HCT116 cells assessed as effect on feeding behaviour at 2.5 mg/kg administered once in every 2 days", "type": "organism-based", "conditions": "in vivo, 48 h"}, "[23]": {"tested_on": "A2780S", "assay": "Cell cycle arrest in human A2780S cells assessed as accumulation at G0/G1 phase at 30 nM after 24 hrs by propidium iodide staining based flow cytometry (reference value: 44.3%)", "type": "functional"}, "[24]": {"tested_on": "HepG2", "assay": "Binding affinity to beta-tubulin colchicine binding site in human HepG2 cells assessed as reduction in EBI-beta-tubulin adduct formation preincubated for 2 hrs followed by EBI addition measured after 1.5 hrs by Western blot analysis", "type": "cell-based"}, "[25]": {"tested_on": "A2780S", "assay": "Cell cycle arrest in human A2780S cells assessed as accumulation at G2/M phase after 24 hrs by propidium iodide staining based flow cytometry", "type": "functional"}, "[26]": {"tested_on": "L02", "assay": "Antiproliferative activity against human LO2 cells after 48 hrs by MTT assay", "type": "cell-based", "conditions": "L02, 48 h"}, "[27]": {"tested_on": "HCT-116", "assay": "Antiproliferative activity against human HCT116 cells after 48 hrs by MTT assay", "type": "functional, cell-based", "conditions": "HCT-116, 48 h"}, "[28]": {"tested_on": "HCT-8", "assay": "Antiproliferative activity against human HCT8 cells after 48 hrs by MTT assay", "type": "functional, cell-based", "conditions": "HCT-8, 48 h"}, "[29]": {"species": "Sus scrofa", "assay": "Inhibition of porcine brain tubulin polymerization preincubated for 5 mins followed by GTP addition measured every 2 mins by spectrophotometric method"}, "[30]": {"tested_on": "A2780S", "assay": "Induction of alpha-tubulin depolymerization in human A2780S cells at 5 to 50 nM after 24 hrs by DAPI staining based immunofluorescence microscopic method", "type": "cell-based"}, "[31]": {"tested_on": "MCF7", "assay": "Antiproliferative activity against human MCF7 cells after 48 hrs by MTT assay", "type": "functional, cell-based", "conditions": "MCF7, 48 h"}, "[32]": {"tested_on": "A2780S", "assay": "Cell cycle arrest in human A2780S cells assessed as accumulation at S phase at 10 nM after 24 hrs by propidium iodide staining based flow cytometry (reference value: 40.36%)", "type": "functional"}, "[33]": {"tested_on": "A2780S", "assay": "Cell cycle arrest in human A2780S cells assessed as accumulation at G0/G1 phase at 10 nM after 24 hrs by propidium iodide staining based flow cytometry (reference value: 44.3%)", "type": "functional"}, "[34]": {"tested_on": "HEK293", "assay": "Antiproliferative activity against HEK293 cells after 48 hrs by MTT assay", "type": "cell-based", "conditions": "Homo sapiens, HEK293, 48 h; read-out: IC50"}}, "note": "Calls of active or inactive are those of the source. The rule behind the calls is not given here.", "data": [{"smiles": "COc1ccc(N(C)c2cc(C)nc3ccccc23)cc1NC(=O)CCCCl", "values": [{"measurement": "Activity", "setting": "[1]", "value": 27.95, "unit": "%"}, {"measurement": "inhibition in vivo at 2.5 mg/kg", "setting": "[2]", "value": 54.3, "unit": "%"}, {"measurement": "IC50", "setting": "[3]", "value": 2.2, "unit": "nM"}, {"measurement": "IC50", "setting": "[4]", "value": 3.2, "unit": "nM"}, {"measurement": "Ratio IC50", "setting": "[5]", "value": 2.3}, {"measurement": "Activity", "setting": "[6]", "value": "Non-Toxic"}, {"measurement": "IC50", "setting": "[7]", "value": 3.5, "unit": "nM"}, {"measurement": "Ratio IC50", "setting": "[8]", "value": 1}, {"measurement": "IC50", "setting": "[9]", "value": 3.3, "unit": "nM"}, {"measurement": "Activity", "setting": "[10]", "value": 74.62, "unit": "%"}, {"measurement": "Activity", "setting": "[11]", "value": "< 10", "unit": "%"}, {"measurement": "Activity", "setting": "[12]", "value": 39.48, "unit": "%"}, {"measurement": "Activity", "setting": "[13]", "value": 17.03, "unit": "%"}, {"measurement": "Ratio IC50", "setting": "[14]", "value": 1.7}, {"measurement": "solubility", "setting": "[15]", "value": "Soluble"}, {"measurement": "IC50", "setting": "[16]", "value": 3.7, "unit": "nM"}, {"measurement": "Activity", "setting": "[17]", "value": 80.67, "unit": "%"}, {"measurement": "Ratio IC50", "setting": "[18]", "value": 1}, {"measurement": "IC50", "setting": "[19]", "value": 3.5, "unit": "nM"}, {"measurement": "Activity", "setting": "[20]", "value": 32.57, "unit": "%"}, {"measurement": "IC50", "setting": "[21]", "value": 3.9, "unit": "nM"}, {"measurement": "Activity", "setting": "[22]", "value": "Non-Toxic"}, {"measurement": "Activity", "setting": "[23]", "value": 2.3, "unit": "%"}, {"measurement": "Activity", "setting": "[24]", "value": "Dose-dependent effect"}, {"measurement": "Activity", "setting": "[25]", "value": "Dose-dependent effect"}, {"measurement": "IC50", "setting": "[26]", "value": 75.6, "unit": "nM"}, {"measurement": "IC50", "setting": "[27]", "value": 2.7, "unit": "nM"}, {"measurement": "IC50", "setting": "[28]", "value": 3.4, "unit": "nM"}, {"measurement": "inhibition", "setting": "[29]", "value": "Dose-dependent effect"}, {"measurement": "Activity", "setting": "[30]", "value": "Active"}, {"measurement": "IC50", "setting": "[31]", "value": 1.5, "unit": "nM"}, {"measurement": "Activity", "setting": "[32]", "value": 22.69, "unit": "%"}, {"measurement": "Activity", "setting": "[33]", "value": 2.68, "unit": "%"}, {"measurement": "IC50", "setting": "[34]", "value": 45.3, "unit": "nM"}]}]}
